Experimental data published in patent US12472189B2, “Treatment and prevention of capillary malformation-arteriovenous malformation” (The Regents of University of Michigan, priority 2020, dated 2025).
“Also recorded” adds a separate entry of the source.

Legend:
[1] = test system: induced RASA1-deficient mice (Rasa1 fl/fl Ub ert2cre embryos); test: Developmental angiogenesis in embryos with TM-induced disruption of Rasa1, drug co-administered; details: for EC export of collagen IV / deposition of collagen IV in vascular BM / blood vascular hemorrhage (and edema) / EC apoptosis (activated caspase 3): Rasa1 fl/fl Ub ert2cre embryos, TM at E13.5 with drug i.p. to pregnant mice, assessed at E18.5; for vascular development / vascular phenotypes, drug administered alone: Rasa1 fl/fl and Rasa1 fl/fl Ub ert2cre embryos, drug from E13.5 in the absence of TM; for vascular development / vascular phenotypes, drug administered alone / Embryonic vascular phenotypes / Percentage embryos with phenotype (affected/total): harvest E18.5; for Embryonic vascular phenotypes / Percentage embryos with phenotype (affected/total): TM day E13.5 plus drug
B16 melanoma = test: Tumor angiogenesis, B16 melanoma model in adult induced RASA1-deficient mice; type: in vivo, mouse; details: 13 days
Experimental: TM was administered to mice at 2 months of age (female mice for ID8 experiments and mice of either sex for B16 experiments). After 1 week, mice were injected s.c. in the flank with 1×10^6 ID8 cells or 0.75×10^6 B16F10 cells (provided by Weiping Zou, Michigan Medicine, Ann Arbor Michigan) suspended in 100 μl matrigel (Corning). In B16 experiments, 4PBA was administered to some mice at the same time as tumor and for each day thereafter (0.4 mg/g body weight per injection). ID8 and B16 tumors were harvested 6 weeks or 13 days later respectively and tumor weight and volume was determined as described (Kozak et al. Proc Natl Acad Sci USA. 2010; 107(46):19997-20002; incorporated by reference in its entirety). Tumors were fixed in 4% paraformaldehyde overnight and 5 μm sections were stained with Hoechst and antibodies against CD31, activated caspase 3 and collagen IV as above. Sections were viewed on a BX60 upright fluorescence microscope or a Leica SP5 X confocal microscope. BV density was assessed within a random 800 μm×800 μm region.

HUVEC = test: RASA1 siRNA knockdown in HUVEC, intracellular collagen IV accumulation (immunofluorescence); type: cell-based, human; details: RASA1 siRNA-treated HUVEC, 2 mM 4PBA, 24 hours
Experimental: HUVEC from pooled donors (Lonza, CC-2519) were cultured in EBM™-2 Basal Medium (Lonza, CC-3156) supplemented with EGMm-2 SingleQuots™ Supplement Pack (Lonza, CC-4176). Cells were transfected with 50 nM RASA1 siRNA (5′-[…]-3′ (SEQ ID NO: 1), Invitrogen) using Lipofectamine RNAi MAX (Invitrogen) reagent according to the manufacturer's protocol. Stealth RNAi™ siRNA Negative Control Hi GC (Invitrogen) was used as control. Following transfection, HUVEC were recultured in the presence or absence of 2 mM 4PBA for 24 hours.
HUVECs were fixed with 4% paraformaldehyde in PBS for 30 minutes at room temperature washed in PBS, permeabilized with 0.2% Triton X-100, and blocked with 10% donkey serum for 1 hour. Cells were incubated with antibodies against collagen IV (1340-01, SouthemBiotech) and calnexin (PA5-34754, Thermo Fisher) overnight, followed by Alexa Fluor®488 or 594 conjugated secondary antibodies (Jackson ImmunoResearch) for 4 hours. Cells were stained with Hoechst to identify nuclei before mounting and viewing on a Leica SP5 X confocal microscope.

human and mouse EC = human and mouse EC in vitro; cited from earlier work
[2] = test system: mouse models that express these mutants; details: mouse models expressing point mutant collagen IV variants; cited from earlier work
[3] = Rasa1 fl/fl littermates, Ert2Cre driver None
[4] = TM-treated Rasa1 fl/fl Ub ert2cre recipients, 4PBA daily from tumor injection

SMILES	EC export of collagen IV / deposition of collagen IV in vascular BM [1]	blood vascular hemorrhage (and edema) [1]	vascular development / vascular phenotypes, drug administered alone [1]	Embryonic vascular phenotypes [1, 3]	Percentage embryos with phenotype (affected/total) [1, 3]	Embryonic vascular phenotypes ([1]; Rasa1 fl/fl, Ert2Cre driver Ub)	Percentage embryos with phenotype (affected/total) ([1]; Rasa1 fl/fl, Ert2Cre driver Ub)	B16 growth, 4PBA administered alone (B16 melanoma; Rasa1 fl/fl and Rasa1 fl/fl Ub ert2cre mice not previously injected with TM, 4PBA daily)	export of collagen IV from BEC and BV angiogenesis in B16 tumors (B16 melanoma; [4])	growth of B16 cells (tumor weight and volume) (B16 melanoma; [4])	B16 growth (B16 melanoma; TM-treated Rasa1 fl/fl control mice, 4PBA daily)	intracellular accumulation of collagen IV after RASA1 knockdown (HUVEC)	blocked export of misfolded point mutant collagen IV variants (human and mouse EC)	intracerebral hemorrhage [2]	EC apoptosis (activated caspase 3) [1]	EC apoptosis (activated caspase 3) ([1]; listed as 4-phenylbutyric acid)	EC export of collagen IV / deposition of collagen IV in vascular BM ([1]; listed as 4-phenylbutyric acid)
Cn1cnc2c(F)c(Nc3ccc(Br)cc3Cl)c(C(=O)NOCCO)cc21 [AZD6244]	rescued; also recorded: normal deposition of collagen IV in vascular BM	prevented; also recorded: absence of hemorrhage and edema	did not induce any vascular abnormalities; also recorded: absence of vascular phenotypes	None	0 (0/8) Percentage	None	0 (0/7) Percentage										
O=C(O)CCCc1ccccc1 [4PBA, 4-phenylbutyric acid]	completely rescued; also recorded: normal deposition of collagen IV in vascular BM	completely rescued; also recorded: absence of hemorrhage and edema	no influence; also recorded: absence of vascular phenotypes	None	0 (0/5) Percentage	None	0 (0/7) Percentage	no influence	normal	restored	no influence	rescue	rescued	reversed	completely rescued; also recorded: absence of BEC apoptosis	rescued	rescued
CCOC(=O)c1ccc(O)c(O)c1 [EDHB]	completely rescued; also recorded: normal deposition of collagen IV in vascular BM	completely rescued; also recorded: absence of hemorrhage and edema				None	0 (0/5) Percentage								completely rescued; also recorded: absence of BEC apoptosis		
C=CCN(/C=C1/C(=O)O[C@H](COC)[C@@]2(C)C1=C(O)C(=O)C1=C2[C@H](OC(C)=O)C[C@]2(C)C(=O)CC[C@@H]12)CC=C [PX-866]	unable to rescue	extensive cutaneous hemorrhage was evident													unable to rescue		
O=C(O)c1ccnc(C(=O)O)c1 [2,4PDCA, 2,4 pyridinedicarboxylic acid]	normal deposition of collagen IV in vascular BM	absence of hemorrhage and edema		None	0 (0/6) Percentage	None	0 (0/3) Percentage								absence of BEC apoptosis		
